Data set [1] relates to Staphylococcus aureus ATCC 25923. Type of data set: cell-based. As to conditions: ATCC 25923, 18 h.
Text: (§1) Lysogeny Broth (LB) was used for cultures of Acinetobacter baumannii ATCC 19606, Enterococcus faecalis ATCC 29212, Escherichia coli ATCC 25922, Klebsiella pneumoniae ATCC 13883, Pseudomonas aeruginosa ATCC 27853, and S. aureus ATCC 25923. Brain Heart Infusion (BHI) broth was used for cultures of Listeria ivanovii Li 4pVS2 and Streptococcus pyogenes ATCC 19615. Yeast peptone dextrose (YPD) medium was used for Candida species (C. albicans ATCC 90028 and C. parapsilosis ATCC 22019). MH (Mueller Hinton) broth was used for suspend centrifuged culture of bacteria and yeasts in logarithmic phase to an A630 of 0.01 (~10^6 cfu mL^−1), except for S. pyogenes, L. ivanovii, and E. faecalis that were suspended in their respective growth medium. […] A microplate reader (UVM 340, Asys Hitech) was used to monitor the antimicrobial susceptibility by measuring the change in A630. […] Each experiment was performed in triplicate with positive (0.7% formaldehyde) and negative (without peptide) inhibition controls.
The subject of data set [2] is Candida parapsilosis ATCC 22019. Type of data set: cell-based. Particulars: ATCC 22019, 18 h.
Text: as §1
The test system of data set [3] is K. pneumoniae 1825971. Kind of data set: Antibiofilm assay. Type of data set: cell-based, Klebsiella pneumoniae. As for the experimental part: Overnight cultures of microorganisms [E. coli 0157, methicillin-resistant S. aureus (MRSA), K. pneumoniae 1825971, or C. albicans clinical isolate obtained from a blood culture maintained at LACEN (Laboratório Central de Saúde do Distrito Federal, a Brazilian reference laboratory for clinical isolates in Brasília, Brazil)] grown in LB broth (BD Difco) were diluted 1 in 100 in LB and Todd-Hewitt broth (BD Difco) or BM2 minimal medium [62 mM potassium phosphate buffer, pH 7.0, 7 mM (NH4)2SO4, 2 mM MgSO4, 10 μM FeSO4, 0.5% glucose], and 100 μL per well was added into 96-well round-bottom microplates. Absorbance at 600 nm was used to assess the planktonic cell growth. Non-adherent planktonic cells were removed from microtiter wells and washed twice with deionized water. Adherent cells were stained with 0.1% crystal violet for 20 min. The microplate wells were washed twice with deionized water, air dried, and solubilized with 110 μL of 70% ethanol. […] Biofilm formation was assessed by measuring the absorbance at 600 nm using a microplate reader (Bio-Tek Instruments, Inc., USA). The microdilution method for cationic peptides was used to determine the MIC for planktonic cells. Three biological replicates were performed for each experiment involving eight technical replicates.

The subject of data set [4] is Candida albicans ATCC 90028. Type of data set: cell-based. Particulars: ATCC 90028, 18 h.
Text: as §1
Data set [5] relates to Streptococcus pyogenes ATCC 19615. Type of data set: cell-based. Particulars: ATCC 19615, 18 h.
Text: as §1
Data set [6] relates to Enterococcus faecalis ATCC 29212. Type of data set: cell-based. Particulars: ATCC 29212, 18 h.
Text: as §1
Data set [7] has as its system Escherichia coli ATCC 25922. Kind of data set: Antimicrobial activity, MIC by twofold serial dilution. Type of data set: cell-based. Particulars: purified peptide; MH broth, 18 h, 37 °C, A630; average of three independent experiments in triplicate.
Text: as §1
In data set [8] the test system is E. coli ATCC 25922. Kind of data set: Membrane polarization assay with DiSC3(5). Type of data set: cell-based, Escherichia coli. Particulars: 12.5 µM (twofold above the MIC), 20 min, 37 °C. Here is the method: When the cytoplasmic membrane is intact, the fluorescent probe DiSC3(5) accumulates into the cytoplasmic membrane and then aggregates, causing self-quenching of the fluorescence. In the presence of a membrane-depolarizing agent, DiSC3(5) is released into the medium, leading to an increase in fluorescence that can be monitored over time[59]. Briefly, exponentially growing bacteria were centrifuged (1000 × g, 10 min, 4 °C), washed with PBS, and resuspended in the same buffer to an A630 of 0.1; then 700 µL of bacteria were pre-incubated with 1 µM DiSC3(5) in the dark during 10 min at 37 °C, and then 100 µL of 1 mM KCl were added in order to equilibrate the cytoplasmic and external K^+ concentrations. […] Three independent experiments were performed and results correspond to a representative experiment with negative (PBS) and positive (melittin) controls.

The test system of data set [9] is human erythrocytes. The experiment in a line: Hemolytic assay. Particulars: SPOT-synthesized crude peptides; human red blood cells in NaCl 0.85%, 1 h, 37 °C; hemoglobin release at 546 nm; highest concentration 200 μg mL−1; 100% of hemolysis was not observed.
Experimental: Fresh human venous blood was collected from volunteers in Vacutainer collection tubes containing sodium heparin as an anticoagulant (BD Biosciences, Franklin Lakes, NJ). The blood was centrifuged applying 151 × g force (1500 rpm) and the serum was removed and the blood cells were replaced and washed three times with the same volume of sterile NaCl 0.85% solution. Concentrated red blood cells were diluted tenfold in NaCl 0.85% solution and then exposed at twofold dilutions of peptides for 1 h at 37 °C, at identical concentrations used for antimicrobial assays, in the ratio of 1:1 (v/v), achieving a final volume of 100 μL. The assay was carried out in 96-well polypropylene microtiter plates. The positive control wells contained 1% of Triton X-100, representing 100% cell lysis, and negative control wells contained sterile saline. Hemoglobin release was monitored chromogenically at 546 nm using a microplate reader.
For data set [10], the system named is E. coli ATCC 25922. The experiment in a line: SYTOX green uptake assay (membrane permeabilization). As to conditions: 12.5 µM (twofold above the MIC), 1 h, 37 °C, PBS. Type of data set: cell-based, Escherichia coli. Here is the method:
SG is impermeant to live cells and when the cell membrane is damaged, this dye penetrates into the cell and binds to intracellular DNA, due to its high-affinity to nucleic acids, leading to an increase in fluorescence. Exponentially growing bacteria (6 × 10^5 cfu mL^−1) were resuspended in PBS after centrifugation (1000 × g, 10 min, 4 °C) and washing steps. About 792 μL of the bacterial suspension was pre-incubated with 8 μL of 100 μM SG during 30 min at 37 °C in the dark. […] Results correspond to a representative experiment with negative (PBS) and positive (melittin) controls. Three independent experiments were performed.

In data set [11] the test system is P. aeruginosa ATCC 27853. Kind of data set: SEM-FEG imaging. Type of data set: cell-based, Pseudomonas aeruginosa. As to conditions: 25 µM (MIC) and 50 µM, 1 h, 37 °C. Here is the method: Bacteria in mid-logarithmic phase were collected by centrifugation ([…], 10 min, 4 °C), washed twice with PBS, and suspended in the same buffer at a density of 2 × 10^7 cfu mL^−1. […] As a negative control, cells were incubated in buffer without peptide. Microbial cells were then fixed with 2.5% glutaraldehyde, homogenized by gently inverting the tubes, and stored at 4 °C prior to SEM-FEG analysis. A Hitachi SU-70 Field Emission Gun Scanning Electron Microscope was used to record SEM-FEG images. The samples (gold plates where 20 µL of inoculum were deposited and dried under nitrogen) were fixed on an alumina SEM support with a carbon adhesive tape and were observed without metallization. In Lens Secondary electron detector (SE-Lower) was used to characterize our samples. The accelerating voltage was 1 kV and the working distance was around 15 mm. At least five to ten different locations were analyzed on each surface, leading to the observation of a minimum of 100 single cells.

For data set [12], the system named is Listeria ivanovii Li4pVS2. As to conditions: purified peptide; BHI broth, 18 h, 37 °C, A630; average of three independent experiments in triplicate.
Text: as §1
Data set [13] has as its system Pseudomonas aeruginosa ATCC 27853. Type of data set: cell-based. Particulars: ATCC 27853, 18 h.
Text: as §1
Data set [14] deals with Acinetobacter baumannii ATCC 19606. The experiment in a line: Antimicrobial activity, MIC by twofold serial dilution. Type of data set: cell-based. As to conditions: purified peptide; MH broth, 18 h, 37 °C, A630; average of three independent experiments in triplicate.
Text: as §1
The subject of data set [15] is Klebsiella pneumoniae ATCC 13883. Type of data set: cell-based. Particulars: ATCC 13883, 18 h.
Text: as §1

Molecules are shown by their SMILES. Peptide text beside a SMILES is read from it. Where only a bound is given, the exact number is not on record here.

Take `CC[C@H](C)[C@H](NC(=O)[C@H](CCCNC(=N)N)NC(=O)[C@H](Cc1ccc(O)cc1)NC(=O)CNC(=O)[C@H](Cc1ccc(O)cc1)NC(=O)[C@H](CCCNC(=N)N)NC(=O)[C@H](CC(C)C)NC(=O)[C@H](C)NC(=O)[C@H](CCC(N)=O)NC(=O)[C@H](CCC(=O)O)NC(=O)[C@@H](NC(=O)[C@H](CCC(N)=O)NC(=O)[C@H](CCCNC(=N)N)NC(=O)[C@H](CCSC)NC(=O)[C@H](Cc1ccc(O)cc1)NC(=O)[C@H](CCC(N)=O)NC(=O)[C@@H](N)CCCNC(=N)N)[C@@H](C)CC)C(=O)N[C@@H](CO)C(=O)N[C@@H](CCCNC(=N)N)C(=O)N[C@@H](CCCNC(=N)N)C(N)=O` [Guavanin 2] (H-RQYMRQIEQALRYGYRISRR-NH2): the “Active concentration (MIC)” value was 100 µM in data set [1]; ≥50 µM in data set [2]; >200 µM in data set [4]; 50 µM in data set [5]; >100 µM in [6]; 6.25 µM in data set [7]. Besides, the “Active concentration (MIC)” value in data set [12] stood at 50 µM; in data set [13], 25 µM; in [14], 6.25 µM; in [15], 80 µM. The antibiofilm activity entry in data set [3] is recorded as “only able to reduce C. albicans biofilms”. Further, the “DiSC3(5) fluorescence change (membrane potential)” value in [8] is on record as “decrease in DiSC3(5) fluorescence”. Further, the Hemolysis in data set [9] is > 200 µg/mL. Further, in [10], the “SYTOX Green influx (membrane permeabilization)” value was “only a slow and very small amount of dye influx”. The “membrane effect seen in SEM-FEG images” value in data set [11] is “membrane damage (deformations/indentations)”.

The values above are taken from publication PMC5902452, “In silico optimization of a guava antimicrobial peptide enables combinatorial exploration for peptide design” (Nature Communications, 2018).
